According to PubChem BioAssay AID2060490 (Molecular Pharmacology Branch, DTP, NCI, 2025):

System: 885512-296-R-J2-PDC complex spheroid viability
Assay: Anticancer human tumor 885512-296-R-J2-PDC patient-derived breast carcinoma cell line growth inhibition [GQUAD]
Conditions: for IC50: curve of first compound; for viability, T/C: stronger effect = lower value; active = viability on the fitted dose curve at most 10% of control; inactive = the rest
Method in brief: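 Viability of tumor cells grown as complex spheroids with endothelial and stromal cells, exposed to drug combinations. Top concentration at or near clinical Cmax (else 10 microM), diluted in half-log increments.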

[1] = second compound 0.0316 µM, first compound 0.000999 µM
[2] = second compound 0.0316 µM, first compound 0.00316 µM
[3] = second compound 0.0316 µM, first compound 0.00999 µM
[4] = second compound 0.0316 µM, first compound 0.0316 µM
[5] = second compound 0.0316 µM, first compound 0.0999 µM
[6] = second compound 0.0316 µM, first compound 0.316 µM
[7] = second compound 0.1 µM, first compound 0.000999 µM
[8] = second compound 0.1 µM, first compound 0.00316 µM
[9] = second compound 0.1 µM, first compound 0.00999 µM
[10] = second compound 0.1 µM, first compound 0.0316 µM
[11] = second compound 0.1 µM, first compound 0.0999 µM
[12] = second compound 0.1 µM, first compound 0.316 µM
[13] = second compound 0.316 µM, first compound 0.000999 µM
[14] = second compound 0.316 µM, first compound 0.00316 µM
[15] = second compound 0.316 µM, first compound 0.00999 µM
[16] = second compound 0.316 µM, first compound 0.0316 µM
[17] = second compound 0.316 µM, first compound 0.0999 µM
[18] = second compound 0.316 µM, first compound 0.316 µM
[19] = second compound 1 µM, first compound 0.000999 µM
[20] = second compound 1 µM, first compound 0.00316 µM
[21] = second compound 1 µM, first compound 0.00999 µM
[22] = second compound 1 µM, first compound 0.0316 µM
[23] = second compound 1 µM, first compound 0.0999 µM
[24] = second compound 1 µM, first compound 0.316 µM
[25] = second compound 3.16 µM, first compound 0.000999 µM
[26] = second compound 3.16 µM, first compound 0.00316 µM
[27] = second compound 3.16 µM, first compound 0.00999 µM
[28] = second compound 3.16 µM, first compound 0.0316 µM
[29] = second compound 3.16 µM, first compound 0.0999 µM
[30] = second compound 3.16 µM, first compound 0.316 µM
[31] = second compound 10 µM, first compound 0.000999 µM
[32] = second compound 10 µM, first compound 0.00316 µM
[33] = second compound 10 µM, first compound 0.00999 µM
[34] = second compound 10 µM, first compound 0.0316 µM
[35] = second compound 10 µM, first compound 0.0999 µM
[36] = second compound 10 µM, first compound 0.316 µM
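Also: spheroids exposed to the compounds for one week.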
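For viability, T/C in this document: percent of tumor spheroid viability relative to DMSO vehicle control wells.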

Cn1ncnc1[C@H]1c2n[nH]c(=O)c3cc(F)cc(c23)N[C@@H]1c1ccc(F)cc1 + CN(C)c1ccc(Nc2c3ccc(NC(=O)CCN4CCCC4)cc3nc3cc(NC(=O)CCN4CCCC4)ccc23)cc1
74 nM: IC50 (second compound 3.16 µM)
195 nM: IC50 (second compound 1 µM)
215 nM: IC50 (second compound 0.316 µM)
> 316 nM: IC50 (second compound 0.1 µM)
208 nM: IC50 (second compound 0.0316 µM)
inactive: viability, T/C [1] 90% | viability, T/C [2] 96.1% | viability, T/C [3] 91.3% | viability, T/C [4] 90.5% | viability, T/C [5] 64.3% | viability, T/C [6] 41.9% | viability, T/C [7] 112% | viability, T/C [8] 91.8% | viability, T/C [9] 99.3% | viability, T/C [10] 75.9% | viability, T/C [11] 71.6% | viability, T/C [12] 53.9% | viability, T/C [13] 112% | viability, T/C [14] 101% | viability, T/C [15] 94.4% | viability, T/C [16] 79.5% | viability, T/C [17] 61.5% | viability, T/C [18] 44% | viability, T/C [19] 96.8% | viability, T/C [20] 94% | viability, T/C [21] 90.4% | viability, T/C [22] 81.4% | viability, T/C [23] 57.8% | viability, T/C [24] 44.2% | viability, T/C [25] 95.2% | viability, T/C [26] 96.9% | viability, T/C [27] 93.8% | viability, T/C [28] 64.7% | viability, T/C [29] 47.8% | viability, T/C [30] 36% | viability, T/C [31] 18.6% | viability, T/C [32] 23% | viability, T/C [33] 25% | viability, T/C [34] 20.3% | viability, T/C [35] 19.1% | viability, T/C [36] 15.5%
< 0.999 nM: IC50 (second compound 10 µM)

CC[C@@]1(O)C(=O)OCc2c1cc1n(c2=O)Cc2cc3c(CN(C)C)c(O)ccc3nc2-1 + CN(C)c1ccc(Nc2c3ccc(NC(=O)CCN4CCCC4)cc3nc3cc(NC(=O)CCN4CCCC4)ccc23)cc1
19.8 nM: IC50 (second compound 3.16 µM)
20.2 nM: IC50 (second compound 0.316 µM) | IC50 (second compound 1 µM)
19.5 nM: IC50 (second compound 0.0316 µM)
inactive: viability, T/C [1] 105% | viability, T/C [2] 93.1% | viability, T/C [3] 80.7% | viability, T/C [4] 28.4% | viability, T/C [7] 102% | viability, T/C [8] 95.5% | viability, T/C [9] 83.5% | viability, T/C [10] 34.9% | viability, T/C [13] 95.9% | viability, T/C [14] 103% | viability, T/C [15] 80.7% | viability, T/C [16] 30.2% | viability, T/C [19] 99% | viability, T/C [20] 89.1% | viability, T/C [21] 78.9% | viability, T/C [22] 32.2% | viability, T/C [25] 85.8% | viability, T/C [26] 78.5% | viability, T/C [27] 82.5% | viability, T/C [28] 28.2% | viability, T/C [31] 20.1% | viability, T/C [32] 23.4% | viability, T/C [33] 18.2% | viability, T/C [34] 10.8%
< 0.999 nM: IC50 (second compound 10 µM)
active: viability, T/C [5] 6.28% | viability, T/C [6] 4.08% | viability, T/C [11] 6.9% | viability, T/C [12] 3.94% | viability, T/C [17] 8.66% | viability, T/C [18] 5.73% | viability, T/C [23] 8.09% | viability, T/C [24] 7.14% | viability, T/C [29] 11.3% | viability, T/C [30] 5.81% | viability, T/C [35] 7.67% | viability, T/C [36] 5.22%
22 nM: IC50 (second compound 0.1 µM)

C=CCn1c(=O)c2cnc(Nc3ccc(N4CCN(C)CC4)cc3)nc2n1-c1cccc(C(C)(C)O)n1 + Cc1[nH]c2ccc(F)cc2c1-c1nc2c3cccnc3c3ncccc3c2[nH]1
6260 nM: IC50 (second compound 0.316 µM)
6580 nM: IC50 (second compound 0.0316 µM)
< 31.6 nM: IC50 (second compound 3.16 µM) | IC50 (second compound 10 µM)
6680 nM: IC50 (second compound 0.1 µM)
active: viability, T/C (second compound 1 µM, first compound 10 µM) 8.34% | viability, T/C [28] 6.03% | viability, T/C (second compound 3.16 µM, first compound 0.1 µM) 7.36% | viability, T/C [30] 2.92% | viability, T/C (second compound 3.16 µM, first compound 1 µM) 6.25% | viability, T/C (second compound 3.16 µM, first compound 3.16 µM) 8.08% | viability, T/C (second compound 3.16 µM, first compound 10 µM) 1.1% | viability, T/C [34] 1.82% | viability, T/C (second compound 10 µM, first compound 0.1 µM) 2.1% | viability, T/C [36] 2.49% | viability, T/C (second compound 10 µM, first compound 1 µM) 1.79% | viability, T/C (second compound 10 µM, first compound 3.16 µM) 2.05% | viability, T/C (second compound 10 µM, first compound 10 µM) 1.03%
1460 nM: IC50 (second compound 1 µM)
inactive: viability, T/C [4] 128% | viability, T/C (second compound 0.0316 µM, first compound 0.1 µM) 96.4% | viability, T/C [6] 96.5% | viability, T/C (second compound 0.0316 µM, first compound 1 µM) 125% | viability, T/C (second compound 0.0316 µM, first compound 3.16 µM) 83.7% | viability, T/C (second compound 0.0316 µM, first compound 10 µM) 30.8% | viability, T/C [10] 108% | viability, T/C (second compound 0.1 µM, first compound 0.1 µM) 102% | viability, T/C [12] 97.2% | viability, T/C (second compound 0.1 µM, first compound 1 µM) 104% | viability, T/C (second compound 0.1 µM, first compound 3.16 µM) 88% | viability, T/C (second compound 0.1 µM, first compound 10 µM) 29.2% | viability, T/C [16] 88% | viability, T/C (second compound 0.316 µM, first compound 0.1 µM) 98% | viability, T/C [18] 96.1% | viability, T/C (second compound 0.316 µM, first compound 1 µM) 95.6% | viability, T/C (second compound 0.316 µM, first compound 3.16 µM) 89.2% | viability, T/C (second compound 0.316 µM, first compound 10 µM) 23% | viability, T/C [22] 74.3% | viability, T/C (second compound 1 µM, first compound 0.1 µM) 68.4% | viability, T/C [24] 61.6% | viability, T/C (second compound 1 µM, first compound 1 µM) 59.1% | viability, T/C (second compound 1 µM, first compound 3.16 µM) 37.4%
